Measured values reported in PubChem BioAssay (NCI).
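Values below derive from 48-hour exposures of cells grown in 96-well plates, with endpoints linearly interpolated between the two concentrations bracketing the appropriate inhibition level. TGI marks complete inhibition of growth.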

Columns and labels:
Experiment in all cases: inhibition of tumour cell growth, NCI panel, 48 h
KM12 colon = system: KM12 colon
MALME-3M melanoma = system: MALME-3M melanoma
OVCAR-5 ovarian = system: OVCAR-5 ovarian
OVCAR-8 ovarian = system: OVCAR-8 ovarian
SF-268 CNS = system: SF-268 CNS
SF-539 CNS = system: SF-539 CNS
SK-MEL-5 melanoma = system: SK-MEL-5 melanoma
TK-10 renal = system: TK-10 renal
UACC-62 melanoma = system: UACC-62 melanoma

Structure (SMILES)	TGI (KM12 colon) [µM]	TGI (MALME-3M melanoma) [µM]	TGI (OVCAR-5 ovarian) [µM]	TGI (OVCAR-8 ovarian) [µM]	TGI (SF-268 CNS) [µM]	TGI (SF-539 CNS) [µM]	TGI (SK-MEL-5 melanoma) [µM]	TGI (TK-10 renal) [µM]	TGI (UACC-62 melanoma) [µM]
COC(=O)C(=O)C(C(=O)C=C(C)C)C(=O)C(=O)Nc1nc2ccc([N+](=O)[O-])cc2s1 (stereo not given)	> 100	> 100	> 100	> 100	> 100	> 100	> 100	> 100	> 100
CC(=O)O/N=C(Cl)/C(Cl)=N/OC(C)=O	> 100	> 100	> 100	> 100	> 100	> 100		> 100	> 100
Cc1cc(C)nc(NS(=O)(=O)c2ccc(NC(=O)c3ccc(Cl)c4c(Nc5ccc(S(=O)(=O)N=C(N)N)cc5)c5ccccc5nc34)cc2)n1	> 100	> 100	> 100	> 100	> 100	> 100	> 100	> 100	> 100
COc1cc(CC(C(=O)O)C(=O)O)c(OC)cc1CC(C(=O)O)C(=O)O	> 100	> 100	> 100	> 100	> 100	> 100	> 100	> 100	> 100
Cc1ccc(NC(=O)CC/C(CC(=O)C(C)(C)C)=N\Nc2ccc([N+](=O)[O-])cc2[N+](=O)[O-])cc1C	> 100		> 100	> 100	> 100	> 100		> 100	> 100
O=C1[C@H](Cl)[C@H]2c3cc4ccccc4nc3Oc3ccccc3N12	> 100	> 100	> 100	> 100	> 100		> 100	> 100	42.5
CCCCCCCCCCCCCC(=O)OCC1OC(n2cc(F)c(=O)[nH]c2=O)C(N)C(OC(=O)CCCCCCCCCCCCC)C1O (stereo not given)	> 100	> 100		> 100	> 100	> 100	> 100	> 100	> 100
COc1cc(/C=C\c2ccc(OC(C)=O)cc2)cc(OC)c1OC	> 100	> 100	> 100	> 100	> 100				> 100
N#Cc1cc(NC(=O)c2ccccc2)c(=O)n2c1[nH]c1ccccc12	> 100	83		> 100	> 100	84.4	34.2	89.2	> 100
Nc1ccc2c(c1)Oc1c(F)c(F)cc3c(=O)c(C(=O)O)cn-2c13	> 100	> 100	> 100	> 100		> 100	47.9	> 100	> 100
